In patent US6787125B1, “Compound screening method” (priority 1999, dated 2004):

Columns and labels:
[1] = tested on: C. elegans pharynx; conditions: Kerr et al.; cited from earlier work
[2] = tested on: C. elegans pharynx; assay: Pharynx pumping assay (calcein-AM), strain not specified: dilution series, insecticides, Tocris library; assay type: in vivo; conditions: for effect of compounds of known insecticidal activity on the pharynx pumping rate: FIGS. 18 to 21; for effect on pharynx pumping: general statement
Procedure: (§1) The pumping rate of the pharynx is measured indirectly by adding a marker molecule precursor such as calcein-AM to the medium and measuring the formation of marker dye in the C. elegans gut. Calcein-AM is cleaved by esterases present in the C. elegans gut to release calcein, which is a fluorescent molecule. […] Therefore by measuring the accumulation of calcein in the nematode gut, detectable by fluorescence, it is possible to determine the pumping rate of the pharynx.
(§2) To perform the pharynx pumping screen with calcein-AM, a concentration of between 1 and 100 μM calcein-AM is added into the medium. Preferably 5 to 10 μM calcein-AM is used. Fluorescence is measured using a multi-well plate reader (Victor2, Wallac Oy, Finland) with following settings: Ex/Em=485/530.
To determine the sensitivity of the pharynx pumping assay, dilution series were made for some chemical substances. These include the chemicals clomipramine, tamoxifen, BP554, pimazide and thapsigargin. A concentration range was made from less than 1 μM up to 100 μM, and the pumping assay was repeated as described in previous examples.

[3] = tested on: mutant C. elegans strain with a constitutively pumping pharynx; assay: Pharynx pumping assay (calcein-AM fluorescence), screen for inhibitors; assay type: in vivo; conditions: compounds and worms incubated approximately 1 hour, then calcein-AM, one further hour
Excerpt: Depending on the specific assay which it is desired to perform, different C. elegans strains can be used. Screens to select for chemical substances inhibiting the pumping rate of the C. elegans pharynx are generally performed with mutant C. elegans strains which have a constitutively pumping pharynx. Wild-type worms can also be used in this screen, but the mutants worms are preferred. […] The selected mutant C. elegans with the constitutively pumping pharynx pumps medium into the gut at a constant rate and reduction/rescue of this phenotype can easily be scored, which facilitates the detection and selection of chemical substances.
as §1, §2
160 well known drugs selected from the pharmacopoeia were used in a screen to test the performance of the pharynx pumping method. The drugs tested belong to a variety of categories, which included analgesics, antidiabetics, antiarrythmics, calcium channel blockers, diuretics, cholinesterase inhibitors, proton pump inhibitors and antidepressants.
The drugs were randomly distributed over the wells of two 96-well multi-well plates. The pumping rate of the C. elegans pharynx was measured using calcein-AM as described in Example 2.
In a first assay, the substrate calcein-AM was added to the medium at the same time as the worms and the compounds. The fluorescence was measured after approximately one hour.
In a variation of this protocol, compounds and worms are added to the medium first and incubated for approximately 1 hour. After this incubation period that allowed for the chemical substances to activate or to inhibit the pumping rate of the pharynx, calcein-AM was added. The plates where then further incubated for one hour prior to fluorescence measurement in the microtiter plate reader.

[4] = tested on: wild-type worms; assay: Movement assay (autofluorescence), wild-type worms; assay type: in vivo, C. elegans; conditions: for effect on movement of wild-type worms, compound alone: FIG. 8, 100% represents normal movement of wild-type worms
Procedure: Advanced multi-well plate readers are able to detect sub-regions of the wells of multi-well plates. By using these plate readers it is possible to take measurements in selected areas of the surface of the wells of the multi-well plates. If the area of measurement is centralized, so that only the middle of the well is measured, a difference in nematode autofluorescence (fluorescence which occurs in the absence of any external marker molecule) or optical density can be observed in the wells containing nematodes that move normally as compared to wells containing nematodes that are defective for movement. For the wells containing the nematodes that move normally, a low level of autofluorescence or optical density will be observed, whilst a high level of autofluorescence or optical density can be observed in the wells that contain the nematodes that are defective in movement. Optical density is measured using a variation of the platelet aggregation assay, which is well known in the art. Using the MRX revelation device from Dynex (USA), optical density can be measured at multiple points per well, showing the precipitation pattern of the nematodes.
This is because the mutant is mutated in the acetylcholine esterases, resulting in high concentrations of acetylcholine in the synapses. Neostigmine, a well known acetylcholine esterase inhibitor, was added to wild-type worms distributed over the wells of a multi-well plate and submitted to the movement assay after approximately 2 hours.
As receptor antagonist, hexamethonium will also result in a decrease of movement, as it prevents proper signalling.
In another experiment, wild-type worms were contacted with inhibitory concentrations of neostigmine to prevent movement. After a small incubation period, various concentrations of hexamethonium were added and the wells were submitted to the movement assay (measurement of autofluorescence). […] At very high concentrations of hexamethonium (although lower than the concentrations shown in last panel) a toxic effect is observed, resulting in a decrease in movement. This toxic effect is probably due to the presence of high concentrations of both neostigmine and hexamethonium.

[5] = tested on: ace-1; ace-2 double mutant; assay: Movement assay, ace-1; ace-2 double mutant; assay type: in vivo, C. elegans; conditions: increasing concentrations of hexamethonium, absence of neostigmine; compared with the neostigmine experiment
Procedure: An analogous experiment was performed with the ace-1; ace-2 double mutant. In this experiment, increasing concentrations of hexamethonium were added to the wells in the absence of neostigmine.

Question: With Ivermectin as the compound, how does the “effect on pumping, seen as fluorescence of GFP-calmodulin” value [1] read?
Answer: inhibitors of pumping

Question: What about the “effect of compounds of known insecticidal activity on the pharynx pumping rate” value [2] of the same compound?
Answer: reduction in the pharynx pumping rate

Question: With `N=C(N)S/C=C\C(=O)O` [ZAPA] as the compound, how does the “activity on the pharynx pumping rate found with the variation of the protocol” value (“activity … of the protocol” below) [3] read?
Answer: detection

Question: For `CN1[C@@H]2CC[C@H]1C[C@@H](OC(=O)[C@H](CO)c1ccccc1)C2` [L-Hyoscyamine], which “activity … of the protocol” value [3] is on record?
Answer: detection

Question: With `CN1[C@@H]2CC[C@H]1C[C@@H](OC(=O)C(CO)c1ccccc1)C2` (stereo partly drawn) [Atropine] as the compound, how does the “activity … of the protocol” value [3] read?
Answer: detection

Question: With `COP(=O)(OC)C(O)C(Cl)(Cl)Cl` (stereo not drawn) [Metrifonate] as the compound, how does the “activity … of the protocol” value [3] read?
Answer: detection

Question: Which “effect on pumping, seen as fluorescence of GFP-calmodulin” value [1] does the source give for `NCCc1c[nH]c2ccc(O)cc12` [serotonin] here?
Answer: enhancers of pumping

Question: Which “effect on movement of wild-type worms, compound alone” value [4] does the source give for `CN(C)C(=O)Oc1cccc([N+](C)(C)C)c1` [neostigmine, Neostigmine] here?
Answer: clear decrease in movement

Question: What does the source list for `C/C=C(/C)C(=O)O[C@H]1C(C)=C2[C@H]([C@@H]1OC(=O)CCCCCCC)[C@@](C)(OC(C)=O)C[C@H](OC(=O)CCC)[C@@]1(O)[C@H]2OC(=O)[C@@]1(C)O` [Thapsigargin]?
Answer: effect on pharynx pumping rate, dose-response curve ([2]; at low concentration): enhancement of the pumping; effect on pharynx pumping rate, dose-response curve ([2]; concentration range from less than 1 μM up to 100 μM): decrease of the pumping rate; effect on pharynx pumping [2]: decrease in the pharynx pumping rate; effect on movement ([4]; observation, method not stated): decreased movement

Question: For `C[N+](C)(C)CCCCCC[N+](C)(C)C` [hexamethonium, Hexamethonium], which “movement of ace-1; ace-2 double mutant” value [5] is on record?
Answer: comparable

Question: And the “effect on movement of wild-type worms, compound alone” value [4]?
Answer: represses the movement of wild-type worms, but significant less than neostigmine

Question: And the “movement of wild-type worms in presence of inhibitory concentrations of neostigmine” value ([4]; increasing concentrations of hexamethonium)?
Answer: more movement

Question: What about the “toxic effect in movement assay” value ([4]; very high concentrations of hexamethonium together with neostigmine) of the same compound?
Answer: toxic effect

Question: Which “effect of compounds of known insecticidal activity on the pharynx pumping rate” value [2] does the source give for Picrotoxin here?
Answer: reduction in the pharynx pumping rate

Question: For `CN(C)CCC=C1c2ccccc2COc2ccccc21` [Doxepin], which “effect on pharynx pumping” value [2] is on record?
Answer: enhancer of pharynx pumping
